system: HCT-116; assay: Cytotoxicity against human HCT116 cells after 72 hrs by MTS/PMS assay; format: functional, cell-based; settings: HCT-116, 72 h

| SMILES | IC50 |
| --- | --- |
| CO/C(=C\c1ccc(O)cc1)C(=O)N/C=C/c1cc(Br)c(OC)c(Br)c1 [BOTRYLLAMIDE A] | 33 µM |
| CO/C(=C\c1ccc(O)cc1)C(=O)N/C=C/c1ccc(OC)c(Br)c1 [BOTRYLLAMIDE C] | 28 µM |
| CO/C(=C\c1ccc(O)cc1)C(=O)N/C=C/c1ccc(OC)cc1 [BOTRYLLAMIDE E] | 30 µM |
| CO/C(=C\c1ccc(O)cc1)C(=O)N/C=C/c1ccc(O)cc1 [BOTRYLLAMIDE F] | 85 µM |
| CO/C(=C\c1ccc(O)cc1)C(=O)N/C=C/c1cc(Br)c(O)c(Br)c1 [BOTRYLLAMIDE G] | 110 µM |

Reference: ChEMBL document CHEMBL1148155, “Botryllamides E-H, four new tyrosine derivatives from the ascidian Botrylloides tyreum” (J Nat Prod, 2004)
